From article PMC9967275, “Screening the Pathogen Box to Discover and Characterize New Cruzain and TbrCatL Inhibitors” (Pathogens, 2023)

Legend:
cruzain = cruzain (Trypanosoma cruzi, UniProt P25779); assay: biochemical; conditions: for Cruzain 0’ Inhibition / Cruzain 10’ Inhibition: sheet "Screening results"
In short: (§1)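 Recombinant enzymes assayed by Z-Phe-Arg-AMC cleavage at 25 °C, fluorescence 340/440 nm over 5–7 min, with 10 min or no enzyme–compound preincubation.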

TbrCatL = biological target: T1, TbrCatL (Trypanosoma brucei rhodesiense, UniProt Q95PM0); assay: TbrCatL enzymatic inhibition assay (cleavage of fluorogenic substrate Z-FR-AMC); assay type: biochemical; conditions: for TbrCatL 0’ Inhibition / TbrCatL 10’ Inhibition: sheet "Screening results"
T1 construct: Conor Caffrey (University of California San Diego)
In short: as §1

[1] = 0’ (no pre-incubation), sheet Screening results
[2] = 10’ (pre-incubation), sheet Screening results
[3] = 0’ (pre-incubation time), Pathogen Box screening results
[4] = 10’ (pre-incubation time), Pathogen Box screening results
[5] = 5 µM, PB library solutions, 10 min pre-incubation, vs DMSO control

T1 sequence (Q95PM0 entry or part of it): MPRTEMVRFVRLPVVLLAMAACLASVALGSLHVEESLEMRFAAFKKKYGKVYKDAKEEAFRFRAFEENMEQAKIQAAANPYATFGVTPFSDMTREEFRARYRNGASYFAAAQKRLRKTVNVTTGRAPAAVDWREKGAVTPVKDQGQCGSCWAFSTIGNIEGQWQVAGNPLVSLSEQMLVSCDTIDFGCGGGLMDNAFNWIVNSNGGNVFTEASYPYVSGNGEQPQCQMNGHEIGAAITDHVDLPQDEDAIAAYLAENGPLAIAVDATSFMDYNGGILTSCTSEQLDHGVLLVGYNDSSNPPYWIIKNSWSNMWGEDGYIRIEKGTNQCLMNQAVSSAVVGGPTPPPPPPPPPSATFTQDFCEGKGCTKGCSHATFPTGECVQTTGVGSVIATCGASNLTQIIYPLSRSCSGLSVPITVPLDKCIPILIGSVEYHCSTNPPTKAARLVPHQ
cruzain, sequence (P25779 123-337 limits assumed): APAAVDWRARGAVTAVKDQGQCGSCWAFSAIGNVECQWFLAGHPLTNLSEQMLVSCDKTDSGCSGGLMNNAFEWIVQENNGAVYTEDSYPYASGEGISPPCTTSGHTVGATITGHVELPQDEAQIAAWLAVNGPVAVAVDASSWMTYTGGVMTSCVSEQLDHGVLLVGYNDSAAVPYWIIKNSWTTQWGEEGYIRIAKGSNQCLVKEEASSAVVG

Compound | Cruzain 0’ Inhibition (cruzain; 0’ (pre-incubation time)) | Cruzain 10’ Inhibition (cruzain; 10’ (pre-incubation time)) | TbrCatL 0’ Inhibition (TbrCatL; 0’ (pre-incubation time)) | TbrCatL 10’ Inhibition (TbrCatL; 10’ (pre-incubation time)) | Cruzain Inhibition 0’ (cruzain; [1]) | Cruzain Inhibition 10’ (cruzain; [2]) | TbrCatL Inhibition 0’ (TbrCatL; [1]) | TbrCatL Inhibition 10’ (TbrCatL; [2]) | other results
COc1ccc(-c2cnc3cnc(-c4cccc(OC(C)C)c4)cn23)cc1 [MMV688270] | -4% | 5% | -8% | -8% | – | – | – | – | –
COc1cccc(OCC(=O)c2ccc(Br)cc2)c1 [MMV676379] | – | – | – | – | 8% | 14% | 9% | 20% | –
O=C(NC1=NCCS1)c1sc2cc(F)ccc2c1Cl [MMV676584] | – | – | – | – | -2.7% | 9% | -0.5% | -9% | –
COc1cccc2c(C)nc(N=C(N)N)nc12 [MMV000907] | – | – | – | – | 9.5% | 25% | 32% | 23% | –
Nc1nccc2ccc(Oc3ccncc3)cc12 [MMV026313] | – | – | – | – | – | – | – | – | Cruzain Inhibition 0’ (cruzain; [3]): -0.8%; Cruzain Inhibition 10’ (cruzain; [4]): 8%; TbrCatL Inhibition 0’ (TbrCatL; [3]): 0.4%; TbrCatL Inhibition 10’ (TbrCatL; [4]): 19%
CC(C)(C)c1cc(C(=O)Nc2cccnc2)cc(C(=O)Nc2cccnc2)c1 [MMV020982] | – | – | – | – | 1.3% | -0.5% | -6% | -7% | –
CS(=O)(=O)c1ccccc1C(=O)N(Cc1ccccc1)c1ccccc1 [MMV688798] | – | – | – | – | 13% | 1.2% | 1.5% | -1.9% | –
CNc1snc(C)c1C(=O)NCCOc1ccc(OC)cc1 [MMV688554] | – | – | – | – | -8% | -4.6% | -7% | -8% | –
Cc1ccc2nc(Cl)c(CNCc3cccs3)cc2c1 [MMV676439] | – | – | – | – | -0.1% | 6.5% | 5.4% | 5% | –
COc1ccc(N(CCc2cccc(C)n2)C(=O)C2CCCCC2)cc1 [MMV675996] | -3% | -2.2% | -13% | -10% | – | – | – | – | –
CC1=Nc2ccc(Cl)cc2C(c2ccccc2)N1CCNC(=O)CN(C)C (centres unmarked) [MMV688410] | -0.5% | 3.8% | -4.7% | -3.5% | – | – | – | – | –
CC(=O)Nc1ccc(-c2noc(CC3CCCN(Cc4cccc(F)c4C)C3)n2)cc1 (centres unmarked) [MMV689061] | – | – | – | – | 1.2% | 3.6% | 0% | 0.8% | –
N=C(N)c1ccc(OCCCCCOc2ccc(C(=N)N)cc2)cc1 [MMV000062] | – | – | – | – | 19% | 13% | 3% | -3% | –
Cc1cc(C)n2nc(C(=O)Nc3cc(C(F)(F)F)ccc3N3CCOCC3)nc2n1 [MMV019087] | – | – | – | – | 1.6% | 2.6% | 4.3% | 3% | –
CCc1nc2ccccc2n1CC(O)COc1cc(C)ccc1Cl (centres unmarked) [MMV676449] | – | – | – | – | 4.5% | 6% | 1.5% | 3.5% | –
CCCNC(=O)N1CCC2(CC1)CC(=O)c1cc(C)ccc1O2 [MMV085230] | 15% | 18% | 8.5% | 13% | – | – | – | – | –
COC(=O)C1=C(C)NC(C)=C(C(=O)OC(C)C)[C@H]1c1cccc2nonc12 [MMV001493] | – | – | – | – | 26% | 12% | 1.3% | -2.4% | –
Cc1nnc(NC(=O)c2cn(-c3ccccc3)nc2-c2ccccc2C)o1 [MMV020320] | – | – | – | – | 4.5% | 2.2% | -0.2% | 4% | –
COc1ccc(-c2nc(-c3cccc(NC(=O)Cc4ccc(F)cc4)c3)no2)cc1OC [MMV676571] | – | – | – | – | 6% | 4% | 8% | 10% | –
O=C(NCc1nnc2n1CCCCC2)c1ccc(-c2ccc(F)cc2)o1 [MMV688796] | – | – | – | – | 15% | 7% | 7% | -2.4% | –
COc1ccc(C(=N)N)cc1-c1cn(-c2ccc(C(=N)N)cc2)nn1 [MMV675998] | 6% | 26% | 2% | 34% | – | – | – | – | –

Compound | Cruzain 0’ Inhibition (cruzain; 0’ (pre-incubation time)) | Cruzain 10’ Inhibition (cruzain; 10’ (pre-incubation time)) | TbrCatL 0’ Inhibition (TbrCatL; 0’ (pre-incubation time)) | TbrCatL 10’ Inhibition (TbrCatL; 10’ (pre-incubation time)) | Cruzain Inhibition 0’ (cruzain; [1]) | Cruzain Inhibition 10’ (cruzain; [2]) | TbrCatL Inhibition 0’ (TbrCatL; [1]) | TbrCatL Inhibition 10’ (TbrCatL; [2]) | other results
O=C(Nc1nnc(-c2ccc(Cl)cc2)o1)c1cccc(C(F)(F)F)c1 [MMV102872] | – | – | – | – | -1.6% | -10% | 0.5% | -16% | –
C[C@H]1COC2(CCN(c3nc(=O)c4cc(C(F)(F)F)cc([N+](=O)[O-])c4s3)CC2)O1 [MMV676603] | – | – | – | – | 1.3% | 1.7% | 4.5% | 2.8% | –
CN1CCN(c2nccc3nc(-c4ccc(F)c(F)c4)[nH]c23)CC1 [MMV676260] | -9% | 1.2% | 0.7% | 5% | – | – | – | – | –
Nc1nc2cc(-c3cncc(Oc4ccc(F)cc4)c3)ccc2[nH]1 [MMV687248] | 17% | 19% | -0.7% | 17% | – | – | – | – | –
Cc1nc(-c2ccccn2)nc(N(C)CCc2ccccc2)c1Cl [MMV658988] | – | – | – | – | – | – | – | – | Cruzain Inhibition 0’ (cruzain; [3]): -3%; Cruzain Inhibition 10’ (cruzain; [4]): 14%; TbrCatL Inhibition 0’ (TbrCatL; [3]): -5.5%; TbrCatL Inhibition 10’ (TbrCatL; [4]): 10%
COc1ccc(N(CCc2cccc(C)n2)C(C)=O)cc1 [MMV675995] | 2.8% | 1.9% | -3% | 19% | – | – | – | – | –
COc1ccc2nc(C)cc(OCC(=O)NCc3ccccc3)c2c1 [MMV687189] | 4.5% | -1.1% | 2.6% | 5% | – | – | – | – | –
Nc1ncnc2c1c(Cc1cccc3ccccc13)nn2CC1CCNCC1 [MMV676182] | -4.4% | 4.5% | 1.4% | 3.4% | – | – | – | – | –
Cc1cc(NCC(C)C)c2[nH]nc(-c3ccccc3)c2n1 [MMV021375] | 18% | 23% | 17% | 20% | – | – | – | – | –
O=C(Nc1nc(-c2ccccn2)cs1)c1cncn1-c1ccccc1 [MMV676512] | – | – | – | – | -27% | -84% | -27% | -109% | Increase in the initial velocity of the reaction (%) 5 µM using PB samples Cruzain (cruzain; [5]): 84 ± 54%; Increase in the initial velocity of the reaction (%) 5 µM using solid samples Cruzain (cruzain; 5 µM, solid samples, 10 min pre-incubation, vs DMSO control): 14 ± 9%; Increase in the initial velocity of the reaction (%) 100 µM using solid samples Cruzain (cruzain; 100 µM, solid samples, 10 min pre-incubation, vs DMSO control): 24 ± 5%; Increase in the enzyme velocity in confirmatory assays (cruzain; solid samples, varying compound concentrations): no increase in the enzyme velocity; Increase in the initial velocity of the reaction (%) 5 µM using PB samples TbrCatL (TbrCatL; [5]): 109 ± 71%; Increase in initial velocity of substrate cleavage in comparison to the DMSO control (TbrCatL; TbrCatL 10′ inc, screening at 5 µM): 2 fold
COc1ccc(C2=NN(C3CCCCCC3)C(=O)C2(C)C)cc1OCc1ccccn1 [MMV688360] | – | – | – | – | 14% | 11% | 13% | 16% | –
CC(C)(C)OC(=O)N1CCC(Cn2nc(-c3cnc4ccccc4c3)c3c(N)ncnc32)CC1 [MMV688364] | -14% | 0% | -10% | -15% | – | – | – | – | –
COc1ccc2nc(C)cc(OCC(=O)Nc3ccccc3OC)c2c1 [MMV687188] | 0.8% | 4.7% | -0.5% | 3% | – | – | – | – | –
Cc1[nH]c2ccccc2c1C(c1cccs1)N1CCN(C)CC1 (centres unmarked) [MMV688768] | – | – | – | – | 2.7% | 9% | 0.9% | 2.4% | –
COc1cccc(-n2nnnc2S(=O)(=O)Cc2ccccc2)c1 [MMV676388] | – | – | – | – | 15% | 12% | 18% | 15% | –
Cc1ccc(S(=O)(=O)Nc2ccc(CN3CCN(C(=O)c4cccc(C#N)c4)CC3)cc2)cc1 [MMV689028] | – | – | – | – | -0.6% | 8% | -0.6% | -0.3% | –
CC(Oc1cccc(Cl)c1)C(=O)Nc1ccc2oc(-c3ccncc3)nc2c1 (centres unmarked) [MMV688472] | – | – | – | – | 17% | 14% | 13% | 14% | –
CCCS(=O)(=O)N1CCC(CO)(Cc2ccccc2C(F)(F)F)CC1 [MMV001059] | 0.9% | -1.3% | -3.7% | -0.8% | – | – | – | – | –
Cc1cc(C(=O)Nc2cnn(Cc3ccc(Cl)cc3Cl)c2)no1 [MMV009054] | – | – | – | – | -1.8% | -2% | -14% | -16% | –
CC(C)N=c1cc2n(-c3ccc(Cl)cc3)c3ccccc3nc-2cc1Nc1ccc(Cl)cc1 [MMV687800] | – | – | – | – | 23% | 10% | 1.1% | 3% | –
